Experimental data reported in US3959356A, “Acetylene derivatives of amino acids” (Richardson-Merrell Inc., priority 1975, dated 1976).

Legend:
[1] = tested on: spontaneous motor activity; test: spontaneous motor activity in rodents (sedative properties), procedure of Dews; format: in vivo; conditions: 100-200 mg/kg, mice or rats
Description: The sedative properties of the compounds of this invention were determined by measuring spontaneous motor activity in rodents by the procedure described by P. Dews, Brit. J. Pharmacol. 8, 46 (1953).

[2] = loss of body weight in rats on daily dosing; format: in vivo; conditions: rats weighing 190 g; oral 25 mg/kg for four days (not a sedative dose); saline group 250 g
Description: For instance, rats weighing 190 g, when given for four days, oral doses of 25 mg/kg 4-amino-5-yne-hexanoic acid (which is not a sedative dose) weigh only 170 gms as compared to 250 g for animals of the same group which were given saline for the same period.

reserpine ptosis = reserpine ptosis test of Rubin et al. (anti-depressant activity); format: in vivo; conditions: 50 mg/kg i.p. in mice one hour after 2 mg/kg i.v. reserpine; 3 hours after drug administration; control reserpinized animals 6.5
Description: The ability of the compounds of this invention at doses ranging from 50 to 200 mg/kg, to alleviate reserpine ptosis has been shown by the classical test of B. Rubin et al., J. Pharmacol. 120, 125 (1957), which is currently used to determine anti-depressant activity. For instance, in intraperitoneal injection 50 mg/kg of 4-amino-5-yne-hexanoic acid in mice, one hour after an intravenous injection of 2 mg/kg reserpine dissolved in 2% ascorbic acid/water results in a palpebral aperture of 5.5, 3 hours after drug administration as compared to 6.5 for control reserpinized animals.

audiogenic seizures = test: protection against audiogenic seizures in DBA mice (method of Simler et al.); format: in vivo, mice of the DBA strain; conditions: 50-200 mg/kg
Text: This ability is further shown by the protective effect of this treatment on audiogenic seizures in mice of the DBA strain measured by the general method described by Simler et al., Biochem. Pharmacol. 22, 1701 (1973), which is currently used to evidence antiepileptic activity.

[3] = tested on: γ-aminobutyric acid transaminase; conditions: literature compounds; cited from earlier work
[4] = tested on: brain level of γ-aminobutyric acid; conditions: literature compound, cited from earlier work

Structure (SMILES)	time after administration at which decreased motor activity is still observable ([1]; i.v., i.p. or oral)	time at which decreased motor activity appears after administration ([1]; i.v., i.p. or oral)	effect on spontaneous motor activity ([1]; intravenous, intraperitoneal or oral route)	body weight after treatment [2]	palpebral aperture (reserpine ptosis)	duration of protection against audiogenic seizures (audiogenic seizures)	protection against audiogenic seizures (audiogenic seizures; one hour after treatment)	type of inhibition of γ-aminobutyric acid transaminase [3]	effect on brain levels of γ-aminobutyric acid [4]	duration of the effect on brain γ-aminobutyric acid ([4]; reversible effect)
C#CC(N)CCC(=O)O (racemic) [4-amino-5-yne-hexanoic acid, 4-Amino-5-yne-hexanoic acid]	≥ 48 h	1 h	substantially decreased motor activity	170 gms	5.5	over 16 hours	complete protection	–	–	–
NCC#CC(=O)O [4-aminotetrolic acid]	–	–	–	–	–	–	–	competitive reversible inhibitor	–	–
CCCC(CCC)C(=O)O [n-dipropylacetate]	–	–	–	–	–	–	–	competitively inhibiting	elevate brain levels of γ-aminobutyric acid	about 2 hours
